# Tests used:
# [1] = test system: TGF-β-stimulated SMAD3 phosphorylation in BEAS-2B cells; test: Cellular ALK5 potency assay, inhibition of TGF-β stimulated pSMAD3 formation in BEAS-2B cells; format: cell-based; conditions: Homo sapiens; inhibition of TGF-β stimulated pSMAD3 formation, BEAS-2B cells; read-out: BEAS2B pIC50 (converted)
# Summary of the method: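 BEAS-2B human lung epithelial cells pre-treated 1 h at 37° C with compound in HBSS/25 mM HEPES/1% BSA, then stimulated 30 min with 10 ng/mL TGF-β (final). Lysates assayed for pSMAD3 by AlphaLISA; pIC50 from dose-dependent change versus stimulated untreated cells.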
# [2] = molecular target: T1, recombinant human ALK5 (TGF-βR1) protein (Homo sapiens, UniProt P36897); test: Biochemical ALK5 (TGF-βR1) assay to measure pKi (LANCE Ultra ULight kinase assay); conditions: apparent pKi from pIC50 by Cheng-Prusoff, read-out: ALK5 pKi (converted)
# T1 construct: purchased Life Technologies PR9075A
# T1 sequence (P36897 34-503): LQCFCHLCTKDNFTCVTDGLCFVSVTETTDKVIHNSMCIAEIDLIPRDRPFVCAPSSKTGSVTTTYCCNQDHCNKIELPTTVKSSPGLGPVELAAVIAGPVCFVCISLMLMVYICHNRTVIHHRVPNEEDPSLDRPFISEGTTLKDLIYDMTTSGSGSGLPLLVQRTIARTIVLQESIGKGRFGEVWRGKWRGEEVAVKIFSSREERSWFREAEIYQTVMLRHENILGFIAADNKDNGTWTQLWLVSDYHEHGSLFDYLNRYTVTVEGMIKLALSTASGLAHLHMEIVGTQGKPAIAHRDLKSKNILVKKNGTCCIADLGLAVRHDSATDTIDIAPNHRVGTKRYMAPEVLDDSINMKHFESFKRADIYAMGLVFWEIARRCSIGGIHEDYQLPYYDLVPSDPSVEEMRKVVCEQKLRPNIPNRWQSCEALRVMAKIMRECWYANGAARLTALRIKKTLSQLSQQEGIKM
# Summary of the method: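 After a 60 min room-temperature preincubation of ALK5 with compound, phosphorylation proceeds 60 min at 37 °C on ATP addition (125 μM as 5× stock). Detection: Eu-labelled phospho-Thr1342 Topo IIα antibody in EDTA buffer, pH 7.0; emission 665 nm.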
Ki [2],SMILES,IC50 [1]
0.0398 to 0.316 nM,"Cc1cccc(-c2[nH]cnc2-c2ccc3ncc(N4CCC(C(=O)O[C@@H]5CCNC5)CC4)cc3c2)n1 [Compound 41, [(3R)-pyrrolidin-3-yl] 1-[6-[5-(6-methyl-2-pyridyl)-1H-imidazol-4-yl]-3-quinolyl]piperidine-4-carboxylate]",25.1 to 158 nM
< 0.0316 nM,"Cc1cccc(-c2[nH]cnc2-c2ccc3ncc(-c4cccc(NC5CCNCC5)c4)cc3c2)n1 [Compound 686, N-[3-[6-[5-(6-methyl-2-pyridyl)-1H-imidazol-4-yl]-3-quinolyl]phenyl]piperidin-4-amine]",25.1 to 158 nM
0.0398 to 0.316 nM,"Cc1cccc(-c2n[nH]cc2-c2ccc3ncc(N4CCNC(C(N)=O)C4)cc3n2)n1 (racemic) [Compound 497, rac-(2S)-4-[6-[3-(6-methyl-2-pyridyl)-1H-pyrazol-4-yl]-1,5-naphthyridin-3-yl]piperazine-2-carboxamide]",200 to 1260 nM
0.0398 to 0.316 nM,"Cc1nc(-c2n[nH]cc2-c2ccc3ncc(-c4cnn(C[C@@H]5CC[C@H](N)C5)c4)cc3n2)ccc1F (racemic) [Compound 547, rac-(1S,3R)-3-[[4-[6-[3-(5-fluoro-6-methyl-2-pyridyl)-1H-pyrazol-4-yl]-1,5-naphthyridin-3-yl]pyrazol-1-yl]methyl]cyclopentanamine]",200 to 1260 nM
< 0.0316 nM,"Cc1cccc(-c2[nH]cnc2-c2ccc3ncc(-c4csc(C(=O)OC[C@H]5CCCNC5)c4)cc3c2)n1 [Compound 1253, [(3S)-3-piperidyl]methyl 4-[6-[5-(6-methyl-2-pyridyl)-1H-imidazol-4-yl]-3-quinolyl]thiophene-2-carboxylate]",25.1 to 158 nM
< 0.0316 nM,"Cc1cc(-c2cnc3ccc(-c4c[nH]nc4-c4cccc(C)n4)nc3c2)ccn1 [Compound 454, 7-(2-methyl-4-pyridyl)-2-[3-(6-methyl-2-pyridyl)-1H-pyrazol-4-yl]-1,5-naphthyridine]",< 20 nM
0.0398 to 0.316 nM,"Cc1nc(-c2n[nH]cc2-c2ccc3ncc(-c4nc5n(n4)CCNC5)cc3n2)ccc1F [Compound 176, 2-[3-(5-fluoro-6-methyl-2-pyridyl)-1H-pyrazol-4-yl]-7-(5,6,7,8-tetrahydro-[1,2,4]triazolo[1,5-a]pyrazin-2-yl)-1,5-naphthyridine]",25.1 to 158 nM
0.0398 to 0.316 nM,"Cc1cccc(-c2[nH]cnc2-c2ccc3ncc(-c4ncc(C(=O)O)s4)cc3c2)n1 [Compound 1017, 2-(6-(5-(6-methylpyridin-2-yl)-1H-imidazol-4-yl)quinolin-3-yl)thiazole-5-carboxylic acid]",1580 to 10000 nM
< 0.0316 nM,"Cc1nc(-c2n[nH]cc2-c2ccc3ncc(-c4cnn5c4NCC5)cc3n2)ccc1F [Compound 534, 7-(2,3-dihydro-1H-imidazo[1,2-b]pyrazol-7-yl)-2-[3-(5-fluoro-6-methyl-2-pyridyl)-1H-pyrazol-4-yl]-1,5-naphthyridine]",< 20 nM
0.0398 to 0.316 nM,"Cc1cccc(-c2[nH]cnc2-c2ccc3ncc(-c4cc(C(=O)O[C@H]5CCNC5)ccn4)cc3c2)n1 [Compound 1060, [(3S)-pyrrolidin-3-yl] 2-[6-[5-(6-methyl-2-pyridyl)-1H-imidazol-4-yl]-3-quinolyl]pyridine-4-carboxylate]",25.1 to 158 nM
< 0.0316 nM,"Cc1cccc(-c2[nH]cnc2-c2ccc3ncc(-c4csc(C(=O)OC[C@H]5CCCCN5)c4)cc3c2)n1 [Compound 1207, [(2R)-2-piperidyl]methyl 4-[6-[5-(6-methyl-2-pyridyl)-1H-imidazol-4-yl]-3-quinolyl]thiophene-2-carboxylate]",25.1 to 158 nM
0.398 to 3.16 nM,"Cc1cccc(-c2n[nH]cc2-c2ccc3ncc(-c4c(C)noc4C)cc3n2)n1 [Compound 243, 3,5-dimethyl-4-[6-[3-(6-methyl-2-pyridyl)-1H-pyrazol-4-yl]-1,5-naphthyridin-3-yl]isoxazole]",25.1 to 158 nM
0.0398 to 0.316 nM,"Cc1nc(-c2nc3ccccn3c2-c2ccc3ncc(-c4cn5c(n4)CNCC5)cc3n2)ccc1F [Compound 555, 2-[2-(5-fluoro-6-methyl-2-pyridyl)imidazo[1,2-a]pyridin-3-yl]-7-(5,6,7,8-tetrahydroimidazo[1,2-a]pyrazin-2-yl)-1,5-naphthyridine]",25.1 to 158 nM
0.398 to 3.16 nM,"Cc1cccc(-c2n[nH]cc2-c2ccc3ncc(N(C)CC(=O)N4CCOCC4)cc3n2)n1 [Compound 181, 2-[methyl-[6-[3-(6-methyl-2-pyridyl)-1H-pyrazol-4-yl]-1,5-naphthyridin-3-yl]amino]-1-morpholino-ethanone]",25.1 to 158 nM
< 0.0316 nM,"Cc1cccc(-c2[nH]cnc2-c2ccc3ncc(-c4csc(C(=O)OC5CCNCC5)c4)cc3c2)n1 [Compound 751, 4-piperidyl 4-[6-[5-(6-methyl-2-pyridyl)-1H-imidazol-4-yl]-3-quinolyl]thiophene-2-carboxylate]",25.1 to 158 nM
< 0.0316 nM,"Cc1cccc(-c2[nH]cnc2-c2ccc3ncc(C4=CCC(N(C)C)CC4)cc3n2)n1 (centres unmarked) [Compound 452, N,N-dimethyl-4-[6-[5-(6-methyl-2-pyridyl)-1H-imidazol-4-yl]-1,5-naphthyridin-3-yl]cyclohex-3-en-1-amine]",25.1 to 158 nM
< 0.0316 nM,"CCc1cccc(-c2n[nH]cc2-c2ccc3ncc(N4CCC(N5CCCC5)CC4)cc3n2)n1 [Compound 532, 2-(3-(6-ethylpyridin-2-yl)-1H-pyrazol-4-yl)-7-(4-(pyrrolidin-1-yl)piperidin-1-yl)-1,5-naphthyridine]",25.1 to 158 nM
< 0.0316 nM,"Cc1cccc(-c2n[nH]cc2-c2ccc3nccc(-c4cn[nH]c4)c3c2)n1 [Compound 866, 6-[3-(6-methyl-2-pyridyl)-1H-pyrazol-4-yl]-4-(1H-pyrazol-4-yl)quinoline]",25.1 to 158 nM
0.398 to 3.16 nM,"Cc1cccc(-c2n[nH]cc2-c2ccc3nccc(CN4CCN(CC(=O)O)CC4)c3n2)n1 [Compound 822, 2-[4-[[6-[3-(6-methyl-2-pyridyl)-1H-pyrazol-4-yl]-1,5-naphthyridin-4-yl]methyl]piperazin-1-yl]acetic acid]",25.1 to 158 nM
0.0398 to 0.316 nM,"Cc1cccc(-c2[nH]ncc2-c2ccc3ncc(C(=O)O[C@H]4CCN(C)C4)cc3n2)n1 [Compound 563, [(3S)-1-methylpyrrolidin-3-yl]6-[5-(6-methyl-2-pyridyl)-1H-pyrazol-4-yl]-1,5-naphthyridine-3-carboxylate]",25.1 to 158 nM
0.0398 to 0.316 nM,"Cc1cccc(-c2[nH]cnc2-c2ccc3ncc(C4=CCN(C(=O)[C@@H]5CCCN5)CC4)cc3c2)n1 [Compound 779, [4-[6-[5-(6-methyl-2-pyridyl)-1H-imidazol-4-yl]-3-quinolyl]-3,6-dihydro-2H-pyridin-1-yl]-[(2S)-pyrrolidin-2-yl]methanone]",25.1 to 158 nM
0.398 to 3.16 nM,"Cc1cccc(-c2[nH]cnc2-c2ccc3ncc(C(=O)O[C@H]4CCN(C)C4)cc3c2)n1 [Compound 724, [(3S)-1-methylpyrrolidin-3-yl] 6-[5-(6-methyl-2-pyridyl)-1H-imidazol-4-yl]quinoline-3-carboxylate]",25.1 to 158 nM
0.398 to 3.16 nM,"Cc1cccc(-c2[nH]cnc2-c2ccc3nccc(C(=O)O)c3c2)n1 [Compound 1097, 6-[5-(6-methyl-2-pyridyl)-1H-imidazol-4-yl]quinoline-4-carboxylic acid]",200 to 1260 nM
3.98 to 31.6 nM,"CCOC(=O)c1ccnc2ccc(-c3c(-c4cccc(C)n4)n[nH]c3-c3cccc(F)c3)nc12 [Compound 858, ethyl 6-[5-(3-fluorophenyl)-3-(6-methyl-2-pyridyl)-1H-pyrazol-4-yl]-1,5-naphthyridine-4-carboxylate]",200 to 1260 nM
0.0398 to 0.316 nM,"CC(=O)Oc1cnc2ccc(-c3cn[nH]c3-c3cccc(C)n3)cc2c1 [Compound 731, [6-[5-(6-methyl-2-pyridyl)-1H-pyrazol-4-yl]-3-quinolyl]acetate]",< 20 nM
0.0398 to 0.316 nM,"Cc1cccc(-c2[nH]ncc2-c2ccc3ncc(C(=O)OCCCC4CCNCC4)cc3c2)n1 [Compound 1182, 3-(4-piperidyl)propyl 6-[5-(6-methyl-2-pyridyl)-1H-pyrazol-4-yl]quinoline-3-carboxylate]",25.1 to 158 nM
0.0398 to 0.316 nM,"Cc1cccc(-c2n[nH]cc2-c2ccc3ncc(NC(=O)C(F)(F)F)cc3n2)n1 [Compound 610, 2,2,2-trifluoro-N-[6-[3-(6-methyl-2-pyridyl)-1H-pyrazol-4-yl]-1,5-naphthyridin-3-yl]acetamide]",25.1 to 158 nM
0.0398 to 0.316 nM,"Cc1cccc(-c2n[nH]cc2-c2ccc3ncc(N4CCCN(C)C(C)C4)cc3n2)n1 (racemic) [Compound 19, 2-[3-(6-methyl-2-pyridyl)-1H-pyrazol-4-yl]-7-[rac-(3S)-3,4-dimethyl-1,4-diazepan-1-yl]-1,5-naphthyridine]",25.1 to 158 nM

# From patent publication US11590116B2 (THERAVANCE BIOPHARMA R&D IP, LLC, priority 2019, dated 2023)
